Experimental data taken from paper PMC5408667, “A structural and functional analogue of a Bowman–Birk-type protease inhibitor from Odorrana schmackeri” (Bioscience Reports, 2017).
Entries after “also recorded” stand apart in the source; their conditions may differ. Bridge positions count the residues as written; N and C are the ends. Peptide text beside a SMILES is read from it.

Columns and labels:
Chymotrypsin = Chymotrypsin (Bos taurus, UniProt P00766); assay: Chymotrypsin inhibition assay; format: biochemical
Method: Chymotrypsin (10 μl from 0.1 μM stock solution in 1 mM HCl) was added to the wells of a microtitre plate containing substrate (Succinyl–Ala–Ala–Pro–Phe–NHMec, obtained from Bachem, U.K.) (50 μM) and synthetic peptide replicates (0.1–100 μM) in 10 mM phosphate buffer, pH 7.4, containing 2.7 mM KCl and 137 mM NaCl (final volume 210 μl).
(§1) Each determination was carried out in triplicate. The rate of hydrolysis of substrate was monitored continuously, at 37°C, by measuring the rate of increase in fluorescence due to production of 7-amino-4-methylcoumarin (NH2Mec) at 460 nm (excitation 360 nm) in a CytoFluor® multi-well plate reader Series 4000 spectrofluorimeter.
For modest binding inhibition, we first calculated the IC50 from a plot of % inhibition against inhibitor concentration [I]. The data points were fitted to the resulting curve, by non-linear regression analysis, using GraphPad Prism. The IC50 values were then converted into Ki values using the eqn (3), to account for the presence of competing substrate. (3) Ki = IC50/{1 + ([S]/KM)}
This kinetic treatment was applied to the inhibition of tryptase by OSTI and chymotrypsin by [Phe^9]-OSTI. […] The Michaelis constant KM for tryptase against Boc-Phe-Ser-Arg-NHMec was determined to be 227.2 μM, while KM for chymotrypsin against Succinyl–Ala–Ala–Pro–Phe–NHMec was determined to be 38.4 μM. […]

Tryptase = molecular target: T1, Tryptase (Homo sapiens, UniProt Q15661); assay: Tryptase inhibition assay; format: biochemical
T1 construct: purchased Calbiochem, U.K
Method: Tryptase (2.5 μl from 1 mg/ml stock solution, Calbiochem, U.K.), was added to the wells of a microtitre plate containing substrate (Boc-Phe-Ser-Arg-NHMec, obtained from Bachem, U.K.) (50 μM) and synthetic peptide replicates (0.5, 1, 2 and 4 mM) in tryptase assay buffer, pH 7.6, containing 0.05 M Tris, 0.15 M NaCl and 0.2% (w/v) PEG 6000 (final volume 210 μl).
For modest binding inhibition, we first calculated the IC50 from a plot of % inhibition against inhibitor concentration [I]. The data points were fitted to the resulting curve, by non-linear regression analysis, using GraphPad Prism. The IC50 values were then converted into Ki values using the eqn (3), to account for the presence of competing substrate [15]. (3) Ki = IC50/{1 + ([S]/KM)}
In inhibition studies with both these proteases, their respective substrates were used at a fixed concentration [S] of 50 μM. […] The determination of these KM values was carried out using identical buffer and temperature conditions (37°C) as those employed in the inhibition studies with the two synthetic amphibian peptides.

[1] = Determination of peptide secondary structures using CD analysis; format: physicochemical
Method: CD measurements were performed with a JASCO J-815 CD spectrometer (Jasco, Essex, U.K.) at room temperature (20–25°C). Each peptide was dissolved in (a) water and (b) 50% (v/v) trifluoroethanol (TFE)-water to reach a concentration of 50 μM before being transferred and measured in a 0.1 cm high precision quartz cell (Hellma Analytics, Essex, U.K.). The wavelength used in CD spectrometer was from 190 to 240 nm with a scanning speed of 200 nm/min, bandwidth and data pitch are 1 and 0.5 nm respectively. CD data are expressed as the mean molar ellipticity [θ] in deg.cm^2.dmol^−1 in corresponding wavelength (nm), which is calculated using the measured ellipticity (θ, in medg) with the equation [θ] = θ/(10 × c × l), ‘c’ refers to the molar concentration of the sample (mol/l) and the term ‘l’ is the cuvette path length (cm). DichroWeb webserver (http://dichroweb.cryst.bbk.ac.uk/html/home.shtml) was used to estimate the α-helix and β-sheet content.
Figure 8 Circular dichroism spectra of OSTI and [Phe^9]-OSTI The CD spectra recorded for OSTI and [Phe^9]-OSTI (100 μM) in (A) 10 mM ammonium acetate water solution and (B) 50% 2,2,2-TFE/10 mM ammonium acetate water solution.

Trypsin = molecular target: T2, Trypsin (Bos taurus, UniProt P00760); assay: Trypsin inhibition assay (synthetic peptides, Morison plot); format: biochemical; details: substrate Phe-Pro-Arg-NHMec 50 μM, 37°C
T2 construct: gene PRSS1
T2 sequence (P00760 24-246): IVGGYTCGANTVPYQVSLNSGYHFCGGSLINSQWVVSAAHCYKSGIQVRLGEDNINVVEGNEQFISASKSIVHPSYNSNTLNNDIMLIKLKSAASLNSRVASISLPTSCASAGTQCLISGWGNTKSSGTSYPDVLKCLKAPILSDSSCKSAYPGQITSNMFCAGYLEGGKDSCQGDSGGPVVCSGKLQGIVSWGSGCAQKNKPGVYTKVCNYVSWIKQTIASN
Method: Trypsin (10 μl from 0.1 μM stock solution in 1 mM HCl), was added to the wells of a microtitre plate containing substrate (Phe-Pro-Arg-NHMec) (50 μM) and synthetic peptide replicates (0.1–100 μM) in 10 mM phosphate buffer, pH 7.4, containing 2.7 mM KCl and 137 mM NaCl (final volume 210 μl).
as §1
For potent, slow, tight-binding inhibition, the Morison equation was used to determine the inhibition constant Ki(app) by fitting the kinetic data to the equation below: (1) Vi/V0 = 1 − {[E]0 + [I] + Ki(app) − ([E]0 + [I] + Ki(app))^2−4 × [E]0 × [I]/2 × [E]0} […]
This kinetic treatment was used for the inhibition of trypsin by OSTI. Since the inhibition studies were performed in the presence of competing substrate, the true Ki value was calculated from Ki(app) using eqn (2). For trypsin, a fixed substrate concentration [S] of 50 μM was used, for these inhibition studies and in a separate experiment (performed using identical buffer and temperature conditions),a value of 73.29 μM was determined for the Michaelis constant KM, for substrate hydrolysis in the absence of OSTI. […]

chymase = details: Lineweaver–Burk double-reciprocal plot; ref [24]; cited from earlier work
From the text: Tryptase and chymase are atypical serine proteases that are synthesized, stored and released by mast cells. Due to their close involvement in the pathogenesis of inflammation and some other diseases, there have been reports of BBIs possibly having utility in the treatment of such conditions.

[2] = 50% TFE-water, CD 190–240 nm, room temperature (20–25°C), DichroWeb
[3] = aqueous solution, CD 190–240 nm, room temperature (20–25°C), DichroWeb

T1 sequence (Q15661 31-275): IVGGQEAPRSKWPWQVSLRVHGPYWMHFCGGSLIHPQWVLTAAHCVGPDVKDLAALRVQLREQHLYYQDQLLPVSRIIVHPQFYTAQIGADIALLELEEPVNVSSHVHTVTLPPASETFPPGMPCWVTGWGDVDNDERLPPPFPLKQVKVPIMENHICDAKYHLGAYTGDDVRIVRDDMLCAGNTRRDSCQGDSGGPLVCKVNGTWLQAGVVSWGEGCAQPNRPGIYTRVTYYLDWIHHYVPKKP

With “Succinyl–Ala–Ala–Pro–Phe–NHMec [fluorogenic chymotrypsin substrate, reference compound]” the Km (Chymotrypsin; substrate of chymotrypsin, identical buffer and temperature conditions (37°C), read-out: Michaelis constant KM, chymotrypsin) was 38.4 µM.

For `CC[C@H](C)[C@@H]1NC(=O)[C@H](CO)NC(=O)[C@H](Cc2ccccc2)NC(=O)[C@H]([C@@H](C)O)NC(=O)[C@H](Cc2c[nH]c3ccccc23)NC(=O)[C@@H](NC(=O)CNC(=O)[C@H](CCCCN)NC(=O)[C@H](CC(C)C)NC(=O)[C@H](C)NC(=O)[C@H](C)N)CSSC[C@@H](C(=O)N[C@@H](Cc2ccccc2)C(N)=O)NC(=O)[C@@H]2CCCN2C(=O)[C@H](CCCCN)NC(=O)[C@@H]2CCCN2C(=O)[C@@H]2CCCN2C1=O` [[Phe^9]-OSTI, AALKGCWTFSIPPKPCF-amide] (H-AALKGCWTFSIPPKPCF-NH2; disulfide 6-16), the Ki (Chymotrypsin; substrate Succinyl–Ala–Ala–Pro–Phe–NHMec 50 μM, 10 mM phosphate buffer pH 7.4, 2.7 mM KCl, 137 mM NaCl, 37°C, from IC50 with KM 38.4 μM, mean ± S.E.M. of three independent experiments, each performed in duplicate) was 1 ± 0.1 µM.

In the case of `CC[C@H](C)[C@@H]1NC(=O)[C@H](CO)NC(=O)[C@H](CCCCN)NC(=O)[C@H]([C@@H](C)O)NC(=O)[C@H](Cc2c[nH]c3ccccc23)NC(=O)[C@@H](NC(=O)CNC(=O)[C@H](CCCCN)NC(=O)[C@H](CC(C)C)NC(=O)[C@H](C)NC(=O)[C@H](C)N)CSSC[C@@H](C(=O)N[C@@H](Cc2ccccc2)C(N)=O)NC(=O)[C@@H]2CCCN2C(=O)[C@H](CCCCN)NC(=O)[C@@H]2CCCN2C(=O)[C@@H]2CCCN2C1=O` [OSTI, AALKGCWTKSIPPKPCF-amide] (H-AALKGCWTKSIPPKPCF-NH2; disulfide 6-16; N-terminus assumed), the “tryptase inhibition (in words)” value (Tryptase; progress curves, OSTI 0–17.4 μM) is reported as “moderate inhibitor”, the “β-sheet secondary structure (in words)” value ([1]; 50% TFE-water, CD) is reported as “low percentage of β-sheet secondary structure” and the random coil content [1, 2] is reported as 47%. For the same molecule, the α-helix content [1, 2] was 8%, the β-sheet content [1, 2] was 45% and the “canonical β-turn motif” value ([1]; aqueous solution, CD) was “did not display canonical β-turn motif”. The random coil content [1, 3] was 42%, the β-sheet content [1, 3] was 51% and the “inhibition kinetics / mechanism from progress curves” value (Trypsin) was “reversible, slow-binding kinetics; also recorded: two-step complexing mechanism”.

Work on “Boc-Phe-Ser-Arg-NHMec [fluorogenic tryptase substrate, reference compound]” yielded a Km (Tryptase; substrate of tryptase, identical buffer and temperature conditions (37°C), read-out: Michaelis constant KM, tryptase) of 227 µM.

B1: soybean BBI: soybean Bowman–Birk protease inhibitor, two-headed protease inhibitor (protein, UniProt P01055 40-110, looked up)
Bowman-Birk type proteinase …: DDESSKPCCDQCACTKSNPPQCRCSDMRLNSCHSACKSCICALSYPAQCFCVDITDFCYEPCKPSEDDKEN
For B1, the “mechanism of chymase inhibition” value (chymase) is given as “non-competitive mechanism”.
